Common to all, as to format: cell-based
For assay [1], the system named is SK-N-SH neuroblastoma cells. Nature of the assay: Anti-proliferative assay (cell-titre luminescent), SK-N-SH. To be noted: Homo sapiens, 72 hours, luminescence. The procedure: (§1) The ability of compounds 2002, 2009 and 2013-2064 to inhibit the proliferation of cancer cells representative of neuroblastoma, melanoma, prostate cancer, colorectal cancer, non-small cell lung carcinoma, and triple negative breast cancer was assessed. These studies were conducted by contract research (GVK-BIO). Briefly, a pre-determined number of cells as calculated from cell growth assays for each of the cell lines employed were seeded into their respective culture medium (using ATCC culture parameters—http://www.atcc.org) and cultured for 24 h at 37° C. and 5% CO2 in 96-well culture plates. Once attached, each cell line was then exposed to various concentrations of each respective analogue (30, 10, 3, 1, 0.3 and 0.1 μM), cultured for a further 72 hours and exposed to cell-titre luminescent reagent (100 μL/well) for a further 30 minutes). Luminescence was captured using an EnVision multilabel reader and the data for each analogue concentration compared against no treatment control. Cell viability was normalized to control (vehicle alone) and dose-response curves, and half maximal effective concentration (EC50) values were determined using Graph Pad Prism 6 (nonlinear regression sigmoidal dose-response variable slope).

Assay [2] concerns SK-Mel-28 melanoma cells. Briefly: Anti-proliferative assay (cell-titre luminescent), SK-Mel-28. To be noted: Homo sapiens; SK-Mel-28, 72 hours, luminescence. The procedure: as §1
The test system of assay [3] is DU145 prostate cancer cells. Nature of the assay: Anti-proliferative assay (cell-titre luminescent), DU145. To be noted: Homo sapiens, DU-145; DU145, 72 hours, luminescence. The protocol:
as §1

The test system of assay [4] is PC3 prostate cancer cells. Briefly: Anti-proliferative assay (cell-titre luminescent), PC3. To be noted: PC3, 72 hours, luminescence. The protocol:
as §1

The test system of assay [5] is CaCo2 colorectal cancer cells. Briefly: Anti-proliferative assay (cell-titre luminescent), CaCo2. To be noted: Homo sapiens, Caco-2; CaCo2, 72 hours, luminescence. The procedure:
as §1

The subject of assay [6] is A549 lung (NSLC) cells. Nature of the assay: Anti-proliferative assay (cell-titre luminescent), A549. Particulars: Homo sapiens; A549, 72 hours, luminescence. The protocol:
as §1

The subject of assay [7] is MDA-MB-231 breast cancer cells. Briefly: Anti-proliferative assay (cell-titre luminescent), MDA-MB-231. To be noted: Homo sapiens; MDA-MB-231, 72 hours, luminescence. The protocol:
as §1

A value given as a limit tells only on which side of the number the result lay.

Usually IC50 stands for the midpoint of a concentration-inhibition curve. Take `CCOc1ccc2c(c1)c(C(=O)N1CCN(CCc3ccc(F)cc3)CC1)c(C)n2CCCN1CCN(C)CC1` [Compound 2064, (5-ethoxy-2-methyl-1-(3-(4-methylpiperazin-1-yl)propyl)-1H-indol-3-yl)(4-(4-fluorophenethyl)piperazin-1-yl)methanone]: the IC50 in assay [1] turned out to be 4.3 µM; in assay [2], 3.5 µM; in assay [3], 14 µM; in assay [4], 6.9 µM; in assay [5], 29.1 µM; in assay [6] it was 7.8 µM. Further, in assay [7], the concentration for half-maximal inhibition (IC50) was 5.8 µM.
Take `COc1ccc2c(c1)c(/C=C/C(=O)N1CCN(CCc3cccc(F)c3)CC1)c(C)n2CCCN(C)C` [Compound 2021, (E)-3-(1-(3-(dimethylamino)propyl)-5-methoxy-2-methyl-1H-indol-3-yl)-1-(4-(3-fluorophenethyl)piperazin-1-yl)prop-2-en-1-one]: the IC50 in assay [1] was determined as 5.4 µM; in assay [2], 4.3 µM; in assay [3], 6.9 µM; in assay [4], 7.2 µM; in assay [5] it was 7.4 µM; in assay [6], 5.4 µM. Also, in assay [7], the IC50 turned out to be 4.8 µM.
Consider `COc1ccc2c(c1)c(C(=O)N1CCN(CCc3ccccc3)CC1)c(C)n2CCCN(C)C` [Compound 2049, (1-(3-(dimethylamino)propyl)-5-methoxy-2-methyl-1H-indol-3-yl)(4-phenethylpiperazin-1-yl)methanone], for which the IC50 in assay [1] is 8.9 µM; in assay [2], 8.7 µM; in assay [3], greater than 30 µM; in assay [4] it was 8.6 µM; in assay [5], greater than 30 µM; in assay [6] it was greater than 30 µM. Also, it took 7.5 µM to reach half-maximal inhibition in assay [7] (IC50).
Consider `COc1ccc2c(c1)c(/C=C/C(=O)N1CCN(CCc3ccc(F)cc3)CC1)c(C)n2CCCN(C)C` [Compound 2018, (E)-3-(1-(3-(dimethylamino)propyl)-5-methoxy-2-methyl-1H-indol-3-yl)-1-(4-(4-fluorophenethyl)piperazin-1-yl)prop-2-en-1-one], for which the half-inhibitory concentration (IC50) in assay [1] amounted to 8.5 µM; in assay [2], 4.3 µM; in assay [3], 12.1 µM; in assay [4], 8 µM; in assay [5], 38 µM; in assay [6], 15.9 µM. Further, in assay [7], the half-maximal inhibitory concentration (IC50) is 5.7 µM.
Turning to `COc1ccc2c(c1)c(C(=O)N1CCN(CCc3ccccc3)CC1)c(C)n2CCCN1CCN(C)CC1` [Compound 2061, (5-methoxy-2-methyl-1-(3-(4-methylpiperazin-1-yl)propyl)-1H-indol-3-yl)(4-phenethylpiperazin-1-yl)methanone], the IC50 in assay [1] is greater than 30 µM; in assay [2], 8.7 µM; in assay [3], greater than 30 µM; in assay [4], greater than 30 µM; in assay [5] it was greater than 30 µM; in assay [6], greater than 30 µM. This molecule had an IC50 in assay [7] greater than 30 µM.
With `Cc1c(/C=C/C(=O)N2CCN(CCc3ccc4c(c3)OCO4)CC2)c2ccccc2n1CCCN(C)C` [Compound 2014, (E)-1-(4-(2-(benzo[d][1,3]dioxol-5-yl)ethyl)piperazin-1-yl)-3-(1-(3-(dimethylamino)propyl)-2-methyl-1H-indol-3-yl)prop-2-en-1-one], the IC50 was 3.7 µM in assay [1]; 3.2 µM in assay [2]; 7.6 µM in assay [3]; 6.5 µM in assay [4]; 9 µM in assay [5]; 25.7 µM in assay [6]. In addition, in assay [7], the IC50 turned out to be 6.2 µM.
On to `COc1ccc2c(c1)c(C(=O)N1CCN(CCc3cccc(F)c3)CC1)c(C)n2CCCN1CCN(C)CC1` [Compound 2059, (4-(3-fluorophenethyl)piperazin-1-yl)(5-methoxy-2-methyl-1-(3-(4-methylpiperazin-1-yl)propyl)-1H-indol-3-yl)methanone], for which the half-inhibitory concentration (IC50) in assay [1] came out at 4.2 µM; in assay [2], 3.8 µM; in assay [3], 10.1 µM; in assay [4], 9.2 µM; in assay [5], 19.6 µM; in assay [6] it was 10.2 µM. In assay [7], this molecule displayed an IC50 of 7 µM.
Take `COc1ccc2c(c1)c(C(=O)N1CCN(CCc3cccc(F)c3)CC1)c(C)n2CCCN(C)C` [Compound 2047, (1-(3-(dimethylamino)propyl)-5-methoxy-2-methyl-1H-indol-3-yl)(4-(3-fluorophenethyl)piperazin-1-yl)methanone]: the half-inhibitory concentration (IC50) is 10.9 µM in assay [1]; 13.5 µM in assay [2]; 13.6 µM in assay [3]; 14.9 µM in assay [4]; 8.8 µM in assay [5]; 14.3 µM in assay [6]. In addition, the half-maximal inhibitory concentration (IC50) in assay [7] came to 12 µM.
As for `COc1ccc2c(c1)c(/C=C/C(=O)N1CCN(CCc3ccccc3)CC1)c(C)n2CCCN1CCN(C)CC1` [Compound 2034, (E)-3-(5-methoxy-2-methyl-1-(3-(4-methylpiperazin-1-yl)propyl)-1H-indol-3-yl)-1-(4-phenethylpiperazin-1-yl)prop-2-en-1-one], the IC50 in assay [1] is 10.8 µM; in assay [2] it was 16.2 µM; in assay [3], 17.2 µM; in assay [4], 11.5 µM; in assay [5], 8.1 µM; in assay [6] it was 51.3 µM. In addition, the half-maximal inhibitory concentration (IC50) in assay [7] was 13.7 µM.
As for `COc1cccc(CCN2CCN(C(=O)c3c(C)n(CCCN4CCN(C)CC4)c4ccc(OC)cc34)CC2)c1` [Compound 2060, (5-methoxy-2-methyl-1-(3-(4-methylpiperazin-1-yl)propyl)-1H-indol-3-yl)(4-(3-methoxyphenethyl)piperazin-1-yl)methanone], the half-maximal inhibitory concentration (IC50) in assay [1] is 10.8 µM; in assay [2], 7.5 µM; in assay [3] it was greater than 30 µM; in assay [4], greater than 30 µM; in assay [5] it was greater than 30 µM; in assay [6] it was greater than 30 µM. Moreover, 6.1 µM corresponded to half-maximal inhibition in assay [7] (IC50).
As to `Cc1c(C(=O)N2CCN(CCc3cccc(F)c3)CC2)c2ccccc2n1CCCN(C)C` [Compound 2041], the half-inhibitory concentration (IC50) in assay [1] was 13.2 µM; in assay [2] it was 17.1 µM; in assay [3], greater than 30 µM; in assay [4] it was greater than 30 µM; in assay [5], greater than 30 µM; in assay [6], greater than 30 µM. In assay [7], this molecule registered a half-inhibitory concentration (IC50) greater than 30 µM.
Take `COc1ccc2c(c1)c(/C=C/C(=O)N1CCN(CCc3cccc(F)c3)CC1)c(C)n2CCCN1CCN(C)CC1` [Compound 2032, (E)-1-(4-(3-fluorophenethyl)piperazin-1-yl)-3-(5-methoxy-2-methyl-1-(3-(4-methylpiperazin-1-yl)propyl)-1H-indol-3-yl)prop-2-en-1-one]: the 50% inhibitory concentration (IC50) in assay [1] amounted to 4.7 µM; in assay [2], 4.3 µM; in assay [3], 7.7 µM; in assay [4], 6.8 µM; in assay [5] it was 5.6 µM; in assay [6], 9 µM. The same molecule yielded an IC50 in assay [7] of 4.9 µM.
As for `COc1ccc2c(c1)c(/C=C/C(=O)N1CCN(CCc3ccc4c(c3)OCO4)CC1)c(C)n2CCCN1CCN(C)CC1` [Compound 2031, (E)-1-(4-(2-(benzo[d][1,3]dioxol-5-yl)ethyl)piperazin-1-yl)-3-(5-methoxy-2-methyl-1-(3-(4-methylpiperazin-1-yl)propyl)-1H-indol-3-yl)prop-2-en-1-one], the IC50 in assay [1] was determined as 3.7 µM; in assay [2], 3.9 µM; in assay [3] it was 6.2 µM; in assay [4] it was 2.1 µM; in assay [5], 3.7 µM; in assay [6], 4.2 µM. Further, in assay [7], the concentration for half-maximal inhibition (IC50) was 5.2 µM.
For `COc1ccc(CCN2CCN(C(=O)c3c(C)n(CCCN(C)C)c4ccc(OC)cc34)CC2)cc1` [Compound 2045, (1-(3-(dimethylamino)propyl)-5-methoxy-2-methyl-1H-indol-3-yl)(4-(4-methoxyphenethyl)piperazin-1-yl)methanone], the IC50 in assay [1], in assay [2], in assay [3], in assay [4], in assay [5] and in assay [6] was greater than 30 µM throughout. The molecule also displayed an IC50 in assay [7] greater than 30 µM.
For `COc1ccc2c(c1)c(C(=O)N1CCN(CCc3ccc(F)cc3)CC1)c(C)n2CCCN(C)C` [Compound 2044, (1-(3-(dimethylamino)propyl)-5-methoxy-2-methyl-1H-indol-3-yl)(4-(4-fluorophenethyl)piperazin-1-yl)methanone], the IC50 was 6.6 µM in assay [1]; 6.6 µM in assay [2]; 10.1 µM in assay [3]; 11 µM in assay [4]; 11.9 µM in assay [5]; 12.2 µM in assay [6]. In assay [7], this molecule registered an IC50 of 20.4 µM.
Regarding `Cc1c(C(=O)N2CCN(CCc3ccc4c(c3)OCO4)CC2)c2ccccc2n1CCCN(C)C` [Compound 2040, (4-(2-(benzo[d][1,3]dioxol-5-yl)ethyl)piperazin-1-yl)(1-(3-(dimethylamino)propyl)-2-methyl-1H-indol-3-yl)methanone], the IC50 in assay [1] was 26.4 µM; in assay [2], 16.4 µM; in assay [3], greater than 30 µM; in assay [4], greater than 30 µM; in assay [5], greater than 30 µM; in assay [6] it was greater than 30 µM. Further, the IC50 in assay [7] is greater than 30 µM.

The values are drawn from patent publication US20170157135A1 (Novogen Limited, priority 2013, published 2017).
